Reference: US20220041647A1, “ESTRA-1,3,5(10)-TRIENE COMPOUNDS CONDENSED IN POSITION 16(17) WITH A PYRAZOLE RING AS INHIBITORS OF 17-HSD1” (FORENDO PHARMA LTD, priority 2018, published 2022)

tested on: HSD1 enzyme that is expressed in rabbit placenta tissue; assay: Inhibition of E1 to E2 conversion in rabbit placenta tissue homogenate; type: biochemical; conditions: compound 100 nM, 30 nM estrone, 1 mM β-NADPH, 30 min
Outline: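 Rabbit placenta homogenate (20 mM KH2PO4, 1 mM EDTA, pH 7.4) incubated 30 min with 1 mM β-NADPH, 30 nM estrone plus 5 nM [3H]-estrone tracer, and inhibitor at 1 μM or 0.1 μM (1% DMSO). Stopped with TCA; estrone and estradiol resolved by HPLC with scintillation counting; % inhibition = 100 − % conversion relative to uninhibited control.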

Point of comparison: `COc1ccc(NC(=O)CC[C@@H]2c3c[nH]nc3[C@@]3(C)CCC4c5ccccc5CCC4C23)nc1` (stereo partly drawn) [Compound 141, N-(5-methoxypyridin-2-yl)-3-((8aS,12S)-8a-methyl-1,2,6b,7,8,8a,10,12,12a,12b-decahydronaphtho[2′,1′:4,5]indeno[1,2-c]pyrazol-12-yl)propanamide], “Rabbit placenta inhibition % @100 nM” value 35%. Against it:
- C[C@]12CCC3c4cccc(F)c4CCC3C1[C@H](CCC(=O)Nc1ncc(F)cc1F)c1c[nH]nc12 (stereo partly drawn) [Compound 9, N-(3,5-difluoropyridin-2-yl)-3-((8aS,12S)-3-fluoro-8a-methyl-1,2,6b,7,8,8a,10,12,12a,12b-decahydronaphtho[2′,1′:4,5]indeno[1,2-c]pyrazol-12-yl)propanamide] — lower, 26%
- C[C@]12CCC3c4cccc(F)c4CCC3C1[C@H](CCC(=O)Nc1cc(F)ccn1)c1c[nH]nc12 (stereo partly drawn) [Compound 15, 3-((8aS,12S)-3-fluoro-8a-methyl-1,2,6b,7,8,8a,10,12,12a,12b-decahydronaphtho[2′,1′:4,5]indeno[1,2-c]pyrazol-12-yl)-N-(4-fluoropyridin-2-yl)propanamide] — higher, 64%
- C[C@]12CCC3c4cccc(F)c4CCC3C1[C@H](CCC(=O)Nc1ccccn1)c1c[nH]nc12 (stereo partly drawn) [Compound 18, 3-((8aS,12S)-3-fluoro-8a-methyl-1,2,6b,7,8,8a,10,12,12a,12b-decahydronaphtho[2′,1′:4,5]indeno[1,2-c]pyrazol-12-yl)-N-(pyridin-2-yl)propanamide] — higher, 44%
- COc1ccc(NC(=O)CC[C@@H]2c3c[nH]nc3[C@@]3(C)CCC4c5cccc(F)c5CCC4C23)nc1 (stereo partly drawn) [Compound 21, 3-((8aS,12S)-3-fluoro-8a-methyl-1,2,6b,7,8,8a,10,12,12a,12b-decahydronaphtho[2′,1′:4,5]indeno[1,2-c]pyrazol-12-yl)-N-(5-methoxypyridin-2-yl)propanamide] — higher, 68%
- C[C@]12CCC3c4cccc(F)c4CCC3C1[C@H](CCC(=O)N1CCNC(=O)C1)c1c[nH]nc12 (stereo partly drawn) [Compound 24, 4-(3-((8aS,12S)-3-fluoro-8a-methyl-1,2,6b,7,8,8a,10,12,12a,12b-decahydronaphtho[2′,1′:4,5]indeno[1,2-c]pyrazol-12-yl)propanoyl)piperazin-2-one] — lower, 27%
- C[C@]12CCC3c4cccc(F)c4CCC3C1[C@H](CCC(=O)Nc1cc3c([nH]c1=O)CCCC3)c1c[nH]nc12 (stereo partly drawn) [Compound 30, 3-((8aS,12S)-3-fluoro-8a-methyl-1,2,6b,7,8,8a,10,12,12a,12b-decahydronaphtho[2′,1′:4,5]indeno[1,2-c]pyrazol-12-yl)-N-(2-oxo-1,2,5,6,7,8-hexahydroquinolin-3-yl)propanamide] — higher, 53%
- CN(C)C(=O)c1ccc(NC(=O)CC[C@@H]2c3c[nH]nc3[C@@]3(C)CCC4c5cccc(F)c5CCC4C23)nc1 (stereo partly drawn) [Compound 33, 6-(3-((8aS,12S)-3-fluoro-8a-methyl-1,2,6b,7,8,8a,10,12,12a,12b-decahydronaphtho[2′,1′:4,5]indeno[1,2-c]pyrazol-12-yl)propanamido)-N,N-dimethylnicotinamide] — higher, 68%
- CC(C)c1ccc(NC(=O)CC[C@@H]2c3c[nH]nc3[C@@]3(C)CCC4c5cccc(F)c5CCC4C23)nc1 (stereo partly drawn) [Compound 36, 3-((8aS,12S)-3-fluoro-8a-methyl-1,2,6b,7,8,8a,10,12,12a,12b-decahydronaphtho[2′,1′:4,5]indeno[1,2-c]pyrazol-12-yl)-N-(5-isopropylpyridin-2-yl)propanamide] — higher, 55%
- C[C@]12CCC3c4cccc(F)c4CCC3C1[C@H](CCC(=O)Nc1ccc(N3CCOCC3)cn1)c1c[nH]nc12 (stereo partly drawn) [Compound 39, 3-((8aS,12S)-3-fluoro-8a-methyl-1,2,6b,7,8,8a,10,12,12a,12b-decahydronaphtho[2′,1′:4,5]indeno[1,2-c]pyrazol-12-yl)-N-(5-morpholinopyridin-2-yl)propanamide] — higher, 69%
- CN1CCN(c2ccc(NC(=O)CC[C@@H]3c4c[nH]nc4[C@@]4(C)CCC5c6cccc(F)c6CCC5C34)nc2)CC1 (stereo partly drawn) [Compound 42, 3-((8aS,12S)-3-fluoro-8a-methyl-1,2,6b,7,8,8a,10,12,12a,12b-decahydronaphtho[2′,1′:4,5]indeno[1,2-c]pyrazol-12-yl)-N-(5-(4-methylpiperazin-1-yl)pyridin-2-yl)propanamide] — higher, 82%
- COc1ccnc(NC(=O)CC[C@@H]2c3c[nH]nc3[C@@]3(C)CCC4c5cccc(F)c5CCC4C23)c1 (stereo partly drawn) [Compound 48, 3-((8aS,12S)-3-fluoro-8a-methyl-1,2,6b,7,8,8a,10,12,12a,12b-decahydronaphtho[2′,1′:4,5]indeno[1,2-c]pyrazol-12-yl)-N-(4-methoxypyridin-2-yl)propanamide] — higher, 57%
- C[C@]12CCC3c4cccc(F)c4CCC3C1[C@H](CCC(=O)Nc1cnccn1)c1c[nH]nc12 (stereo partly drawn) [Compound 51, 3-((8aS,12S)-3-fluoro-8a-methyl-1,2,6b,7,8,8a,10,12,12a,12b-decahydronaphtho[2′,1′:4,5]indeno[1,2-c]pyrazol-12-yl)-N-(pyrazin-2-yl)propanamide] — higher, 59%
- Cn1ccc(NC(=O)CC[C@@H]2c3c[nH]nc3[C@@]3(C)CCC4c5cccc(F)c5CCC4C23)n1 (stereo partly drawn) [Compound 54, 3-((8aS,12S)-3-fluoro-8a-methyl-1,2,6b,7,8,8a,10,12,12a,12b-decahydronaphtho[2′,1′:4,5]indeno[1,2-c]pyrazol-12-yl)-N-(1-methyl-1H-pyrazol-3-yl)propanamide] — higher, 52%
- C[C@]12CCC3c4cccc(F)c4CCC3C1[C@H](CCC(=O)N1Cc3ccccc3C1)c1c[nH]nc12 (stereo partly drawn) [Compound 57, 3-((8aS,12S)-3-fluoro-8a-methyl-1,2,6b,7,8,8a,10,12,12a,12b-decahydronaphtho[2′,1′:4,5]indeno[1,2-c]pyrazol-12-yl)-1-(isoindolin-2-yl)propan-1-one] — higher, 48%
- COc1ccc(NC(=O)CC[C@@H]2c3c[nH]nc3[C@@]3(C)CCC4c5ccc(F)cc5CCC4C23)nc1 (stereo partly drawn) [Compound 84, 3-((8aS,12S)-4-fluoro-8a-methyl-1,2,6b,7,8,8a,10,12,12a,12b-decahydronaphtho[2′,1′:4,5]indeno[1,2-c]pyrazol-12-yl)-N-(5-methoxypyridin-2-yl)propanamide] — lower, 27%
- CC(C)c1ccc(NC(=O)CC[C@@H]2c3c[nH]nc3[C@@]3(C)CCC4c5ccc(F)cc5CCC4C23)nc1 (stereo partly drawn) [Compound 87, 3-((8aS,12S)-4-fluoro-8a-methyl-1,2,6b,7,8,8a,10,12,12a,12b-decahydronaphtho[2′,1′:4,5]indeno[1,2-c]pyrazol-12-yl)-N-(5-isopropylpyridin-2-yl)propanamide] — lower, 16%
- COc1ccnc(NC(=O)CC[C@@H]2c3c[nH]nc3[C@@]3(C)CCC4c5ccc(F)cc5CCC4C23)c1 (stereo partly drawn) [Compound 90, 3-((8aS,12S)-4-fluoro-8a-methyl-1,2,6b,7,8,8a,10,12,12a,12b-decahydronaphtho[2′,1′:4,5]indeno[1,2-c]pyrazol-12-yl)-N-(4-methoxypyridin-2-yl)propanamide] — lower, 30%
- Cc1ccnc(NC(=O)CC[C@@H]2c3c[nH]nc3[C@@]3(C)CCC4c5ccc(F)cc5CCC4C23)c1 (stereo partly drawn) [Compound 93, 3-((8aS,12S)-4-fluoro-8a-methyl-1,2,6b,7,8,8a,10,12,12a,12b-decahydronaphtho[2′,1′:4,5]indeno[1,2-c]pyrazol-12-yl)-N-(4-methylpyridin-2-yl)-propanamide] — lower, 31%
- C[C@]12CCC3c4ccc(F)cc4CCC3C1[C@H](CCC(=O)Nc1ccc(N3CCOCC3)cn1)c1c[nH]nc12 (stereo partly drawn) [Compound 96, 3-((8aS,12S)-4-fluoro-8a-methyl-1,2,6b,7,8,8a,10,12,12a,12b-decahydronaphtho[2′,1′:4,5]indeno[1,2-c]pyrazol-12-yl)-N-(5-morpholinopyridin-2-yl)propanamide] — higher, 42%
- C[C@]12CCC3c4ccc(F)cc4CCC3C1[C@H](CCC(=O)Nc1ccc(F)cn1)c1c[nH]nc12 (stereo partly drawn) [Compound 99, 3-((8aS,12S)-4-fluoro-8a-methyl-1,2,6b,7,8,8a,10,12,12a,12b-decahydronaphtho[2′,1′:4,5]indeno[1,2-c]pyrazol-12-yl)-N-(5-fluoropyridin-2-yl)propanamide] — lower, 10%
- C[C@]12CCC3c4ccc(Cl)cc4CCC3C1[C@H](CCC(=O)Nc1cc3c([nH]c1=O)CCCC3)c1c[nH]nc12 (stereo partly drawn) [Compound 123, 3-((8aS,12S)-4-chloro-8a-methyl-1,2,6b,7,8,8a,10,12,12a,12b-decahydronaphtho[2′,1′:4,5]indeno[1,2-c]pyrazol-12-yl)-N-(2-oxo-1,2,5,6,7,8-hexahydroquinolin-3-yl) propanamide] — lower, 17%
- CN(C)C(=O)c1ccc(NC(=O)CC[C@@H]2c3c[nH]nc3[C@@]3(C)CCC4c5ccc(Cl)cc5CCC4C23)nc1 (stereo partly drawn) [Compound 126, 6-(3-((8aS,12S)-4-chloro-8a-methyl-1,2,6b,7,8,8a,10,12,12a,12b-decahydronaphtho[2′,1′:4,5]indeno[1,2-c]pyrazol-12-yl)propanamido)-N,N-dimethylnicotinamide] — higher, 37%
- CC(C)c1ccc(NC(=O)CC[C@@H]2c3c[nH]nc3[C@@]3(C)CCC4c5ccccc5CCC4C23)nc1 (stereo partly drawn) [Compound 138, N-(5-isopropylpyridin-2-yl)-3-((8aS,12S)-8a-methyl-1,2,6b,7,8,8a,10,12,12a,12b-decahydronaphtho[2′,1′:4,5]indeno[1,2-c]pyrazol-12-yl)propanamide] — lower, 18%
- COc1ccc(NC(=O)CC[C@@H]2c3c[nH]nc3[C@@]3(C)CCC4c5ccccc5CCC4C23)nn1 (stereo partly drawn) [Compound 156, N-(6-methoxypyridazin-3-yl)-3-((8aS,12S)-8a-methyl-1,2,6b,7,8,8a,10,12,12a,12b-decahydronaphtho[2′,1′:4,5]indeno[1,2-c]pyrazol-12-yl)propanamide] — higher, 56%
